Where two headings read alike, the source gives them in different places. Blank lines part the entries; values can stand above or below the molecule they belong to. Peptide text beside a SMILES is read from it.
Legend:
[1] = mouse, in vivo
Procedure: (§1) Blood samples were collected by eye bleed from three mice at per time point prior to dosing and from 0.5 to 24 hours postdosing, and the plasma portion was analyzed by using an electrospray ionization, LC/MS/MS method described previously[48]. […] Tri (2-carboxyethyl) phosphine hydrochloride (TCEP) was used as a reducing agent to enhance peptide recovery and was added to all samples at a final concentration of 2 mM. After removing the plasma proteins through adding acetonitrile and centrifugation, the supernatant was transferred to another 96-well plate. Samples were analyzed by LC/MS/MS. Pharmacokinetic parameters were fitted to a two-compartment elimination model, and drug exposure (AUC), elimination half-life (t1⁄2), volume of distribution (Vd) and the clearance (CL) were calculated using WinNonlin Ver.

[2] = mouse, in vivo; remark: listed apart in the source
Procedure: (§2) The blood was collected and centrifuged at the end of administration for 4 weeks. The serum was placed into eppendorf (EP) tube and immediately sent to the First Affiliated Hospital of Jinan University where several tests closely related to liver/kidney function were performed, and the blood biochemical indexes AST, ALT, AST/ALT, ALB, GLB, ALB/GLB, DBILI, IBILI, TBILI, BUN and CREA were obtained.

in vivo = conditions: BALB/c, mouse, iv, 5 mg/kg
Procedure: as §1

HSA = molecular target: T1, HSA (Homo sapiens, UniProt P02768); assay: Phage ELISA of 7-mer peptides for serum albumin binding
T1 construct: purchased Sigma
T1 sequence (P02768 25-609): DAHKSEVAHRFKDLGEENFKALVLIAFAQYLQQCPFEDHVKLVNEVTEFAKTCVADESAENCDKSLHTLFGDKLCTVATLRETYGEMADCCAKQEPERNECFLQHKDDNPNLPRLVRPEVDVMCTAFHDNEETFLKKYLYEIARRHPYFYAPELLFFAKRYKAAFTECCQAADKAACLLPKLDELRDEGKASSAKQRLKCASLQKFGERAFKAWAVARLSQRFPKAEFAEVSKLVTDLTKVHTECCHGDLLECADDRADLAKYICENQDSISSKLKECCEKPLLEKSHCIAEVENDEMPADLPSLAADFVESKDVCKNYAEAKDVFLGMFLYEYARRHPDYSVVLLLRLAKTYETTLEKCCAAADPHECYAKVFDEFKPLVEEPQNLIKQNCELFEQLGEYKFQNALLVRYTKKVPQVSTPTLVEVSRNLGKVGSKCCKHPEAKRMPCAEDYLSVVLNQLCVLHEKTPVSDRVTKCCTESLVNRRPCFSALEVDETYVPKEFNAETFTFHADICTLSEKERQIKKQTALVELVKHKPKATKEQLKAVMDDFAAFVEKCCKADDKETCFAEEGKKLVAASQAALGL
Procedure: HSA or MSA were dissolved with 0.1 M NaHCO3 to obtain a solution at 100 μg/ml. The obtained solutions were loaded to each row of wells of enzyme-linked immunosorbent assay (ELISA) multiple-well plate, and the plates were blocked with 1% casein in NaHCO3. Each selected phage clone to be identified was subject to 4-fold serial dilution to allow 10^12 phage particles in the first well and 2.4 × 10^5 phage particles in the twelfth well. Each row of the diluted phages was transferred into the plate coated with HSA or MSA by using a mutichannel pipettor, and the plate was incubated at 25 °C for 1.5 hours. After the microtiter plate was repeatedly washed with TBST, bound phages were detected by incubation with Rabbit anti-M13 phage antibody and HRP-conjugated goat anti-rabbit IgG. ABTS/H2O2 substrate was used to measure the amount of HRP bound and monitor the absorbance at 405 nm.

Du145 transplanted tumor [3] = assay: Subcutaneous Du145 transplanted tumor in nude mice; type: in vivo, BALB/c-nu/nu nude mice; conditions: tail vein once a day for 4 weeks
Procedure: Thirty male 4-week-old BALB/c-nu/nu nude mice (17–19 g), were divided into five groups. CK group (blank control) was the mice which were not inoculated Du145 cells, and the remaining four groups received inoculation of Du145 cells. 0.2 ml of Du145 cells suspension with the concentration of 1.5 × 10^7 cells/ml was injected subcutaneously into the right side of back of nude mice. […] The weights and volumes of tumors in different groups were measured once every four days, and tumor growth curves for each group were plotted.

Du145 transplanted tumor [4] = assay: Microvessel density of removed tumors (anti-CD31 immunohistochemistry, Weidner method); type: in vivo, BALB/c-nu/nu nude mice; conditions: tumors removed after 4 weeks of administration, anti-CD31, n = 6
Procedure: Four weeks after administration, the mice were executed, and the tumors of different groups were removed and fixed with 10% neutral formalin or 2.5% glutaraldehyde. The fixed tumor tissue slides were subjected to Hematoxylin-eosin (HE) staining, immunohistochemistry in which anti-CD31 antibody and biotin-labeled IgG were respectively used as the first and second antibody, and TEM analysis. The microvessel densitied (MVD) in different tumor tissues was calculated using the Weidner method.

[5] = Blood biochemical indexes of liver and kidney function in tumor-bearing nude mice; conditions: serum at end of 4 weeks of administration, n = 6
Procedure: as §2

- half-life [1]: 5.77 min
- ALB [2]: 17.25 ± 1.35 g/L
- ALB/GLB [2]: 0.45 ± 0.02
- BUN [2]: 10.63 ± 0.35
- CREA [2]: 9.5 ± 0.5 µM
- DBILI [2]: 3.85 ± 0.25 µM
- GLB [2]: 41.75 ± 1.45 g/L
- IBILI [2]: 9.75 ± 0.45 µM
- TBILI [2]: 13.6 ± 0.2 µM
- AUC (in vivo): 12300 ng·h/mL
- Vd (in vivo): 0.0561 L/kg
- clearance (in vivo): 6.75 mL/min/kg
- half-life (in vivo): 5.76 min
Molecule: CC[C@H](C)[C@H](NC(=O)[C@H](CCCNC(=N)N)NC(=O)[C@H](CO)NC(=O)[C@@H](NC(=O)[C@@H](NC(=O)[C@H](Cc1c[nH]cn1)NC(=O)[C@@H](NC(=O)[C@H](CC(C)C)NC(=O)[C@@H](N)CC(C)C)[C@@H](C)O)[C@@H](C)O)[C@@H](C)CC)C(=O)N[C@@H](C)C(=O)N[C@H](C(=O)N[C@@H](CO)C(=O)N[C@@H](Cc1ccc(O)cc1)C(=O)N[C@@H](CCC(N)=O)C(=O)N[C@H](C(=O)N[C@@H](CCCCN)C(=O)N[C@H](C(=O)N[C@@H](CC(N)=O)C(=O)N[C@@H](CC(C)C)C(=O)N[C@@H](CC(C)C)C(=O)O)C(C)C)[C@@H](C)O)C(C)C [P16] (H-LLTHTISRIAVSYQTKVNLL-OH)
- ALT [2]: 131.5 ± 24.5 U/L
- AST [2]: 188.5 ± 29.5 U/L
- AST/ALT [2]: 1.45 ± 0.05

Molecule: WQRPSSW
- binding affinity to HSA compared with MSA (HSA; phage ELISA, plates coated with HSA or MSA): slightly higher than that of mouse serum albumin
- HSA-binding affinity of phage-encoded 7-mer peptide (HSA; sandwich immunoassay (ELISA), 4-fold serial dilution from 10^12 phage particles, absorbance at 405 nm): much higher HSA-binding affinity than HLYWQRP

Molecule: C[C@]12CC[C@@H]3c4ccc(OC(=O)N(CCCl)CCCl)cc4CC[C@H]3[C@@H]1CC[C@@H]2O [Estramustine]
- body weight change of treated mice (Du145 transplanted tumor [3]; 40 nM RMP16, estramustine 60 mg/kg): reduced obviously
- tumor inhibition rate (Du145 transplanted tumor [3]; 0.1 ml of 40 nM RMP16 or P16, estramustine 60 mg/kg, by average tumor weight versus NaCl group, n = 6): 83.03%
- microvessel density (MVD) (Du145 transplanted tumor [4]): 8.6 ± 0.83
- ALB [5]: 15.2 ± 0.6 g/L
- ALB/GLB [5]: 0.36 ± 0.02
- ALT [5]: 81.5 ± 12.5 U/L
- AST [5]: 161 ± 18 U/L
- AST/ALT [5]: 1.99 ± 0.09
- CREA [5]: 4 ± 0.3 µM
- DBILI [5]: 3.7 ± 0.4 µM
- GLB [5]: 42.1 ± 3.7 g/L
- IBILI [5]: 7.7 ± 0.2 µM
- TBILI [5]: 11.4 ± 0.2 µM

Source: paper PMC4559766 (Scientific Reports, 2015)
